Literature values as cited in patent US20240230688A1, “METHOD FOR DETERMINING PERSONALIZED OMEGA-3 DOSE” (SOCIETE DES PRODUITS NESTLE S.A., priority 2021, published 2024).

System: pregnant women
Details: women who took supplement during pregnancy compared to those who did not

For `CC/C=C\C/C=C\C/C=C\C/C=C\C/C=C\C/C=C\CCC(=O)O` [DHA supplement, (4Z,7Z,10Z, 13Z, 16Z, 19Z)-4,7,10,13,16, 19-Docosahexaenoic acid], the “less likely to have early preterm birth” value is listed as 42%.
